For assay [1], the system named is form-deprivation myopia (FDM) in chick eyes fitted with a translucent diffuser. The experiment in a line: Safety and efficacy of topical levodopa in form-deprivation myopia over a four week period. The class given is in vivo, White Cockerel chickens. The note with it: topical 0.3% w/v (15 mM) levodopa composition of Example 1, twice daily, four weeks. The method, then:
Male White Cockerel chickens were kept under normal laboratory light (500 lux, fluorescent lights) on a 12:12 hour light:dark cycle with lights on at 9:30 am and off at 9:30 pm. In all chicks, left eyes were treated experimentally while right eyes remained untreated to serve as a contralateral control. Chicks were randomly assigned to one of four groups (n=6 for each group) and treated over the four week period under the following experimental conditions: • 1. […] Form-deprivation myopia (FDM): Chicks were fitted with a translucent diffuser over their left eye to induce FDM, receiving no further treatment • 3.
Administration of the test compositions was performed in accordance with that described in Example 4.
To determine changes in the rate of eye growth and the development of myopia, axial length and refraction were measured using A-scan ultrasonography (Biometer AL-100; Tomey Corporation, Nagoya, Japan) and automated infrared photo-retinoscopy, respectively. Ocular measurements (axial length and refraction) were made on day one (prior to the commencement of experimentation) and every seven days for four weeks.
A multivariate analysis of variance (MANOVA) with repeated measures design was used to compare the effect of the different treatment regimens over time.

Assay [2] has the same test system. The experiment in a line: Form-deprivation myopia (FDM) induced by translucent diffuser, five day treatment; axial length and refraction. It is filed as in vivo, White Cockerel chickens. The conditions noted are these: Example 15, five days; for effect of intravitreal injection versus topical administration on refraction and axial elongation: daily administration; for axial elongation in comparison with animals fitted with a translucent diffuser only (G2) / myopic shift in refraction in comparison with animals fitted with a translucent diffuser only (G2): ADTN 1 mM, atropine 2 mM, pirenzepine 16 mM. The method, then:
For the drug treatments, the compositions were administered under light isoflurane anesthesia using intravitreal injection or topical administration.
Intravitreal injection was performed as follows: Using a 30 gauge needle attached to a Hamilton syringe, 10 μL (0.01 mL) of the test composition was injected into the vitreous chamber of the eye once daily.
Topical administration was performed as follows: Two drops of 40 μL (two drops of 0.04 mL, or 0.08 mL total) of the test composition was applied to the corneal surface of the eye using an eye drop dispenser. Drops were applied to the chicks twice daily.
To determine changes in the rate of eye growth and the development of myopia, changes in axial length and refraction were assessed. Myopia is associated with excessive elongation of the eye in the axial direction relative to normal growth rates. Such excessive axial elongation leads to a relative myopic change in refraction. Axial length and refraction were measured using A-scan ultrasonography (Biometer AL-100; Tomey Corporation, Nagoya, Japan) and automated infrared photo-retinoscopy respectively. Statistical analysis of changes in both refraction and axial length between groups involved a one-way ANOVA test followed by a Student's T-test with Bonferroni correction. All data are presented as the mean±the […] of the mean (SEM). […]
70 male White Cockerel chickens were randomly assigned to one of 14 treatment groups as defined below (n=5 per group) and were treated for a five day period. G1-G14 represent the labelling system used in FIGS. 11 and 12.
ADTN compositions were prepared by dissolving ADTN in a solution containing 0.1% ascorbic acid in 1×PBS to a final concentration of 1 mM (0.03% w/v), and adjusting the pH to 7. Atropine and pirenzepine compositions were prepared by dissolving atropine (in the form of atropine sulfate salt monohydrate) or pirenzepine (in the form of pirenzepine dihydrochloride) in distilled water to a final concentration of 2 mM (0.14% w/v) and 16 mM (0.7% w/v), respectively, and adjusting the pH to 7.
Administration of test compositions and measurement of ocular parameters was performed in accordance with that described in Example 4.

[3] abbreviates: daily topical administration, levodopa 0.03% w/v in combinations.

Turning to `N[C@@H](Cc1ccc(O)c(O)c1)C(=O)O` [levodopa], in assay [1], the “axial elongation in comparison to diffusers in the absence of levodopa treatment” value is recorded as “decreased axial elongation”.

On to `NC1CCc2cc(O)c(O)cc2C1` (stereo not shown) [ADTN, 2-amino-6,7-dihydroxy-1,2,3,4-tetrahydronaphthalene], for which the “effect of intravitreal injection versus topical administration on refraction and axial elongation” value in assay [2] is reported as “intravitreal injection having a greater effect than topical administration”. The “axial elongation in comparison with animals fitted with a translucent diffuser only (G2)” value (shortened to “axial elongation in comparison … (G2)”) in assay [2] (daily intravitreal injection) and in assay [2] (setting [3]) was “decreased axial elongation” each time. The “myopic shift in refraction in comparison with animals fitted with a translucent diffuser only (G2)” value (“myopic shift in refraction in comparison” for short) in assay [2] (daily intravitreal injection) and in assay [2] (setting [3]) was “significantly inhibited the myopic shift in refraction” each time.

`CN1[C@@H]2CC[C@H]1C[C@@H](OC(=O)C(CO)c1ccccc1)C2` (stereo partly shown) [atropine]: the “effect of intravitreal injection versus topical administration on refraction and axial elongation” value in assay [2] was “intravitreal injection having a greater effect than topical administration”. In assay [2] (daily intravitreal injection), the “axial elongation in comparison … (G2)” value is reported as “decreased axial elongation” and the “myopic shift in refraction in comparison” value was “significantly inhibited the myopic shift in refraction”. In addition, in assay [2] (setting [3]), the “axial elongation in comparison … (G2)” value is “decreased axial elongation” and the “myopic shift in refraction in comparison” value is “significantly inhibited the myopic shift in refraction”.

Regarding `CN1CCN(CC(=O)N2c3ccccc3C(=O)Nc3cccnc32)CC1` [pirenzepine], the “effect of intravitreal injection versus topical administration on refraction and axial elongation” value in assay [2] is on record as “greater when intravitreally administered”. Also, the “axial elongation in comparison … (G2)” value in assay [2] (daily intravitreal injection) and in assay [2] (setting [3]) was “decreased axial elongation” in each case. Besides, the “myopic shift in refraction in comparison” value in assay [2] (daily intravitreal injection) and in assay [2] (setting [3]) was “significantly inhibited myopic shifts in refractive development” throughout.

(Values after US11890266B2 (University of Canberra, priority 2016, dated 2024).)
